Assay results published in patent US20240041042A1, “1-(PYRIDYL)-5-AZINYLPYRAZOLE DERIVATIVES, AND THEIR USE FOR CONTROL OF UNDESIRED PLANT GROWTH” (Bayer Aktiengesellschaft, priority 2020, published 2024).

What was measured:
Assay type in all cases: in vivo
[1] = tested on: Amaranthus retroflexus (AMARE); assay: Pre-emergence herbicidal action against AMARE; details: visual scoring after about 3 weeks vs untreated controls
Outline: (§1)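 Dosages of 320 g/ha or less; pre-emergence; WP or EC in aqueous spray, 0.5% additive, 600 l/ha; greenhouse; visual % effect after ~3 wk relative to control pots.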

[2] = tested on: Echinochloa crus-galli (ECHCG); assay: Pre-emergence herbicidal action against ECHCG
Outline: as §1

[3] = tested on: Matricaria inodora (MATIN); assay: Pre-emergence herbicidal action against MATIN
Outline: as §1

Setaria viridis (SETVI) = assay: Pre-emergence herbicidal action against SETVI
Outline: as §1

[4] = tested on: Alopecurus myosuroides (ALOMY); assay: Post-emergence herbicidal action against ALOMY; details: visual rating about 3 weeks after treatment vs untreated controls (100% = plants have died, 0% = like control plants)
Outline: (§2)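 Post-emergence greenhouse spray, one-leaf stage, 600 l/ha water plus 0.5% additive; WP or EC formulations; application rates 320 g/ha or lower. Visual % damage vs untreated controls at ~3 weeks.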

[5] = tested on: Amaranthus retroflexus (AMARE); assay: Post-emergence herbicidal action against AMARE
Outline: as §2

[6] = tested on: Echinochloa crus-galli (ECHCG); assay: Post-emergence herbicidal action against ECHCG
Outline: as §2

[7] = tested on: Pharbitis purpurea (PHBPU); assay: Post-emergence herbicidal action against PHBPU
Outline: as §2

[8] = tested on: Verconica persica (VERPE); assay: Post-emergence herbicidal action against VERPE
Outline: as §2

Viola tricolor (VIOTR) = assay: Post-emergence herbicidal action against VIOTR
Outline: as §2

[9] = 80 g/ha, visual rating about 3 weeks after treatment vs untreated controls (100% = plants have died, 0% = like control plants)
[10] = 320 g/ha, visual rating about 3 weeks after treatment

| SMILES | Pre-emergence action against AMARE in % ([1]; 80 g/ha) | Pre-emergence action against AMARE in % ([1]; 320 g/ha) | Pre-emergence action against ECHCG in % ([2]; dosage 80 g/ha) | Pre-emergence action against ECHCG in % ([2]; dosage 320 g/ha) | Pre-emergence action against MATIN in % ([3]; dosage 80 g/ha) | Pre-emergence action against MATIN in % ([3]; dosage 320 g/ha) | Pre-emergence action against SETVI in % (Setaria viridis (SETVI); dosage 80 g/ha) | Pre-emergence action against SETVI in % (Setaria viridis (SETVI); dosage 320 g/ha) | Post-emergence action against ALOMY in % ([4]; 80 g/ha) | Post-emergence action against ALOMY in % ([4]; 320 g/ha) | Post-emergence action against AMARE in % [5, 9] | Post-emergence action against AMARE in % [5, 10] | Post-emergence action against ECHCG in % ([6]; dosage 80 g/ha) | Post-emergence action against ECHCG in % ([6]; dosage 320 g/ha) | Post-emergence action against PHBPU in % ([7]; dosage 80 g/ha) | Post-emergence action against PHBPU in % ([7]; dosage 320 g/ha) | Post-emergence action against VERPE in % ([8]; 320 g/ha, VERPE) | Post-emergence action against VERPE in % ([8]; dosage 80 g/ha) | Post-emergence action against VIOTR in % (Viola tricolor (VIOTR); 80 g/ha) | Post-emergence action against VIOTR in % (Viola tricolor (VIOTR); 320 g/ha) |
| --- | --- | --- | --- | --- | --- | --- | --- | --- | --- | --- | --- | --- | --- | --- | --- | --- | --- | --- | --- | --- |
| CCOC(=O)[C@@H](C)Oc1nn(-c2ncccc2F)c(-c2ccc(F)nc2)c1C1CC1 [Example I-375] | 100% | 100% | 80% | 100% | 100% | 100% | 90% | 100% | 100% | 100% | 80% | 80% | 90% | 90% | 80% | 90% | 90% | 80% | 80% | 90% |
| COC(=O)C(C)NC(=O)[C@@H](C)Oc1nn(-c2ccccn2)c(-c2cncc(F)c2)c1Cl (stereo partly shown) [Example I-199] | 100% | 100% | 90% | 90% | 90% | 100% | 90% | 100% |  | 90% | 80% | 90% | 90% | 90% |  | 80% | 90% | 90% | 80% | 80% |
| COC(=O)COc1nn(-c2ncccc2F)c(-c2cncc(F)c2)c1Br [Example I-16] | 100% | 100% | 90% | 90% | 100% | 100% | 90% | 100% | 90% | 90% |  | 80% | 80% | 80% | 90% | 90% | 90% | 80% | 80% | 80% |
| COC(=O)[C@@H](C)Oc1nn(-c2ncccc2F)c(-c2ccc(F)nc2)c1C(F)(F)F [Example I-331] | 100% | 100% | 80% | 100% | 100% | 100% |  | 90% | 100% | 100% | 80% | 80% | 90% | 90% |  | 90% | 90% | 90% | 80% | 80% |
| COC(=O)[C@@H](C)Oc1nn(-c2nc(F)ccc2F)c(-c2cncc(F)c2)c1Br [Example I-191] | 90% | 100% | 90% | 100% | 90% | 90% | 80% | 100% | 80% | 90% | 80% | 80% | 80% | 80% | 90% | 100% | 90% | 80% |  | 80% |
| C[C@@H](Oc1nn(-c2ccccn2)c(-c2cncc(F)c2)c1Cl)C(=O)O [Example I-218] | 100% | 100% | 90% | 100% | 90% | 100% | 90% | 100% |  | 90% | 80% | 80% | 80% | 90% | 90% | 100% | 80% | 80% | 80% | 80% |
| COC(=O)CCOC(=O)[C@@H](C)Oc1nn(-c2ccccn2)c(-c2cncc(F)c2)c1Cl [Example I-196] | 100% | 100% | 90% | 90% | 90% | 90% | 90% | 100% | 80% | 90% | 80% | 80% | 80% | 80% | 90% | 90% | 90% | 80% | 80% | 80% |
| COC(=O)[C@H](C)COC(=O)COc1nn(-c2ccccn2)c(-c2cncc(F)c2)c1Cl [Example I-192] | 80% | 100% | 90% | 100% | 90% | 90% | 90% | 100% | 90% | 90% | 80% | 80% | 90% | 90% | 90% | 90% | 80% | 80% |  | 80% |
| COC(=O)COc1nn(-c2ncccc2F)c(-c2ccc(F)nc2)c1Br [Example I-07] | 90% | 90% |  | 100% | 80% | 100% |  | 100% | 90% | 100% | 90% | 90% |  | 90% | 80% | 80% | 90% | 90% | 90% | 90% |
